Data as given in ChEMBL document CHEMBL5137127, “Astramalabaricosides A-T, Highly Oxygenated Malabaricane Triterpenoids with Migratory Inhibitory Activity from Astragalus membranaceus var. mongholicus” (J Nat Prod, 2022).
The source made the active and inactive calls. No cut-off for these calls is given here.

tested on: HepG2; experiment: Antimigratory activity against human HepG2 cells assessed as inhibition of cell migration at 100 uM measured upto 24 hrs by inverted microscopy based scratch wound healing assay; format: functional

Compound | Activity
CC(=O)N[C@H]1[C@H](O[C@H]2[C@H](O[C@H]3[C@H](O[C@H]4CC[C@]5(C)[C@H]6C[C@@H](O)[C@@H]([C@](C)(O)CC/C=C(\C)C[C@@H]7OC(=O)O[C@H]7[C@](C)(O)CO)[C@]6(C)CC[C@H]5C4(C)C)O[C@H](CO[C@@H]4OC[C@@H](O)[C@H](O)[C@H]4O)[C@@H](O)[C@@H]3O)O[C@@H](C)[C@H](O)[C@H]2O)O[C@H](CO)[C@@H](O)[C@@H]1O | Active
CC(=O)N[C@H]1[C@H](O[C@H]2[C@H](O[C@H]3[C@H](O[C@H]4CC[C@]5(C)[C@H]6C[C@@H](O)[C@@H]([C@](C)(O)CC/C=C(\C)C[C@@H]7OC(=O)O[C@H]7[C@](C)(O)CO)[C@]6(C)CC[C@H]5C4(C)C)O[C@H](CO[C@@H]4OC[C@@H](O)[C@H](O)[C@H]4O)[C@@H](OC(C)=O)[C@@H]3O)O[C@@H](C)[C@H](O)[C@H]2O)O[C@H](CO)[C@@H](O)[C@@H]1O | Active
CC(=O)N[C@H]1[C@H](O[C@H]2[C@H](O[C@H]3[C@H](O[C@H]4CC[C@]5(C)[C@H]6C[C@@H](O)[C@@H]([C@](C)(O)CC/C=C(\C)C[C@H](O)[C@H](O)C(C)(C)O)[C@]6(C)CC[C@H]5C4(C)C)O[C@H](CO[C@@H]4OC[C@@H](O)[C@H](O)[C@H]4O)[C@@H](O)[C@@H]3O)O[C@@H](C)[C@H](O)[C@H]2O)O[C@H](CO)[C@@H](O)[C@@H]1O[C@@H]1OC[C@H](O)[C@H](O)[C@H]1O | Active
CC(=O)N[C@H]1[C@H](O[C@H]2[C@H](O[C@H]3[C@H](O[C@H]4CC[C@]5(C)[C@H]6C[C@@H](O)[C@@H]([C@](C)(O)CC/C=C(\C)C[C@H](O)[C@H](O)C(C)(C)O)[C@]6(C)CC[C@H]5C4(C)C)O[C@H](CO[C@@H]4OC[C@@H](O)[C@H](O)[C@H]4O)[C@@H](O)[C@@H]3O)O[C@@H](C)[C@H](O)[C@H]2O)O[C@H](CO)[C@@H](O)[C@@H]1O | Active
C/C(=C\CC[C@@](C)(O)[C@@H]1[C@H](O)C[C@H]2[C@@]1(C)CC[C@H]1C(C)(C)[C@@H](O[C@@H]3O[C@H](CO[C@@H]4OC[C@@H](O)[C@H](O)[C@H]4O)[C@@H](O)[C@H](O)[C@H]3O[C@@H]3O[C@@H](C)[C@H](O)[C@@H](O)[C@H]3O)CC[C@]21C)C[C@H](O)[C@@H](O)[C@@](C)(O)CO | Active
C/C(=C\CC[C@@](C)(O)[C@@H]1[C@H](O)C[C@H]2[C@@]1(C)CC[C@H]1C(C)(C)[C@@H](O[C@@H]3O[C@H](CO[C@@H]4OC[C@@H](O)[C@H](O)[C@H]4O)[C@@H](O)[C@H](O)[C@H]3O[C@@H]3O[C@@H](C)[C@H](O)[C@@H](O)[C@H]3O)CC[C@]21C)C[C@@H]1OC(=O)O[C@H]1[C@](C)(O)CO | Active
CC(=O)N[C@H]1[C@H](O[C@H]2[C@H](O[C@H]3[C@H](O[C@H]4CC[C@]5(C)[C@H]6C[C@@H](O)[C@@H]([C@](C)(O)CC/C=C(\C)C[C@H](O)[C@@H](O)[C@@](C)(O)CO)[C@]6(C)CC[C@H]5C4(C)C)O[C@H](CO[C@@H]4OC[C@@H](O)[C@H](O)[C@H]4O)[C@@H](O)[C@@H]3O)O[C@@H](C)[C@H](O)[C@H]2O)O[C@H](CO)[C@@H](O)[C@@H]1O | Active
CC(=O)N[C@H]1[C@H](O[C@H]2[C@H](O[C@H]3[C@H](O[C@H]4CC[C@]5(C)[C@H]6C[C@@H](O)[C@@H]([C@](C)(O)CC/C=C(\C)C[C@H](O)[C@@H](O)[C@@](C)(O)CO)[C@]6(C)CC[C@H]5C4(C)C)O[C@H](CO[C@@H]4OC[C@@H](O)[C@H](O)[C@H]4O)[C@@H](O)[C@@H]3O)O[C@@H](C)[C@H](O)[C@H]2O)O[C@H](CO)[C@@H](O)[C@@H]1O[C@@H]1OC[C@H](O)[C@H](O)[C@H]1O | Active
CC(=O)N[C@H]1[C@H](O[C@H]2[C@H](O[C@H]3[C@H](O[C@H]4CC[C@]5(C)[C@H]6C[C@@H](O)[C@@H]([C@](C)(O)CC/C=C(\C)C[C@@H]7OC(=O)O[C@H]7C(C)(C)O)[C@]6(C)CC[C@H]5C4(C)C)O[C@H](CO[C@@H]4OC[C@@H](O)[C@H](O)[C@H]4O)[C@@H](O)[C@@H]3O)O[C@@H](C)[C@H](O)[C@H]2O)O[C@H](CO)[C@@H](O)[C@@H]1O | Active
CC(=O)N[C@H]1[C@H](O[C@H]2[C@H](O[C@H]3[C@H](O[C@H]4CC[C@]5(C)[C@H]6C[C@@H](O)[C@@H]([C@](C)(O)CC/C=C(\C)C[C@@H]7OC(=O)O[C@H]7[C@](C)(O)CO[C@@H]7O[C@H](CO)[C@@H](O)[C@H](O)[C@H]7O)[C@]6(C)CC[C@H]5C4(C)C)O[C@H](CO[C@@H]4OC[C@@H](O)[C@H](O)[C@H]4O)[C@@H](O)[C@@H]3O)O[C@@H](C)[C@H](O)[C@H]2O)O[C@H](CO)[C@@H](O)[C@@H]1O | Active
C/C(=C\CC[C@@](C)(O)[C@@H]1[C@H](O)C[C@H]2[C@@]1(C)CC[C@H]1C(C)(C)[C@@H](O[C@@H]3O[C@H](CO[C@@H]4OC[C@@H](O)[C@H](O)[C@H]4O)[C@@H](O)[C@H](O)[C@H]3O[C@@H]3O[C@@H](C)[C@H](O)[C@@H](O)[C@H]3O)CC[C@]21C)C[C@@H]1OC(=O)O[C@H]1[C@](C)(O)CO[C@@H]1O[C@H](CO)[C@@H](O)[C@H](O)[C@H]1O | Active
CC(=O)N[C@H]1[C@H](O[C@H]2[C@H](O[C@H]3[C@H](O[C@H]4CC[C@]5(C)[C@H]6C[C@@H](O)[C@@H]([C@](C)(O)CC/C=C(\C)C[C@H](O)[C@@H](O)[C@@](C)(O)CO[C@@H]7O[C@H](CO)[C@@H](O)[C@H](O)[C@H]7O)[C@]6(C)CC[C@H]5C4(C)C)O[C@H](CO[C@@H]4OC[C@@H](O)[C@H](O)[C@H]4O)[C@@H](O)[C@@H]3O)O[C@@H](C)[C@H](O)[C@H]2O)O[C@H](CO)[C@@H](O)[C@@H]1O | Active
CC(=O)N[C@H]1[C@H](O[C@H]2[C@H](O[C@H]3[C@H](O[C@H]4CC[C@]5(C)[C@H]6C[C@@H](O)[C@@H]([C@](C)(O)CC/C=C(\C)C[C@H](O)[C@H](O)C(C)(C)O)[C@]6(C)CC[C@H]5C4(C)C)O[C@H](CO)[C@@H](O)[C@@H]3O)O[C@@H](C)[C@H](O)[C@H]2O)O[C@H](CO)[C@@H](O)[C@@H]1O | Active
C/C(=C\CC[C@@](C)(O)[C@@H]1[C@H](O)C[C@H]2[C@@]1(C)CC[C@H]1C(C)(C)[C@@H](O[C@@H]3O[C@H](CO[C@@H]4OC[C@@H](O)[C@H](O)[C@H]4O)[C@@H](O)[C@H](O)[C@H]3O[C@@H]3O[C@@H](C)[C@H](O)[C@@H](O)[C@H]3O)CC[C@]21C)C[C@H](O)[C@@H](O)[C@@](C)(O)CO[C@@H]1O[C@H](CO)[C@@H](O)[C@H](O)[C@H]1O | Active
CC(=O)N[C@H]1[C@H](O[C@H]2[C@H](O[C@H]3[C@H](O[C@H]4CC[C@]5(C)[C@H]6C[C@@H](O)[C@@H]([C@](C)(O)CC/C=C(\C)C[C@@H]7OC(=O)O[C@H]7[C@](C)(O)CO)[C@]6(C)CC[C@H]5C4(C)C)O[C@H](CO[C@@H]4OC[C@@H](O)[C@H](O)[C@H]4O)[C@@H](O)[C@@H]3O)O[C@@H](C)[C@H](O)[C@H]2O)O[C@H](CO)[C@@H](O)[C@@H]1O[C@@H]1OC[C@H](O)[C@H](O)[C@H]1O | Active
CC(=O)N[C@H]1[C@H](O[C@H]2[C@H](O[C@H]3[C@H](O[C@H]4CC[C@]5(C)[C@H]6C[C@@H](O)[C@@H]([C@](C)(O)CC/C=C(\C)C[C@@H]7OC(=O)O[C@H]7[C@](C)(O)CO)[C@]6(C)CC[C@H]5C4(C)C)O[C@H](CO[C@@H]4OC[C@@H](O)[C@H](O)[C@H]4O)[C@@H](O)[C@@H]3OC(C)=O)O[C@@H](C)[C@H](O)[C@H]2O)O[C@H](CO)[C@@H](O)[C@@H]1O | Active
